Data set [1] concerns mice. Put plainly: Stress testing in mice, methodology of Aberg (U.S. Pat. No. 6,372,799). The format is in vivo. To be noted: preliminary results.
The test system of data set [2] is mice. Put plainly: Spontaneous motor activity studies in mice. Type of data set: in vivo. To be noted: oral.
The subject of data set [3] is rats. Put plainly: Neuropharmacological study in rats (Irwin test). Type of data set: in vivo. To be noted: for drug-related stress, Irwin test: rats, oral.
A further data set deals with livestock animals. Put plainly: Stress in livestock animals (applicant's findings). To be noted: in vivo.
Data set [4] relates to rats. To be noted: cited from earlier work.
The next data set has as its system animals. Put plainly: Cardiovascular parameters in animals. Type of data set: in vivo. Particulars: concentrations corresponding to doses suitable for growth promotion.
The target in data set [5] is adrenergic β1(h) receptor (Homo sapiens, UniProt P08588). Put plainly: Affinity (Ki) for adrenergic β-receptors, β1. Type of data set: binding.
Chain of adrenergic β1(h) receptor (P08588 whole entry): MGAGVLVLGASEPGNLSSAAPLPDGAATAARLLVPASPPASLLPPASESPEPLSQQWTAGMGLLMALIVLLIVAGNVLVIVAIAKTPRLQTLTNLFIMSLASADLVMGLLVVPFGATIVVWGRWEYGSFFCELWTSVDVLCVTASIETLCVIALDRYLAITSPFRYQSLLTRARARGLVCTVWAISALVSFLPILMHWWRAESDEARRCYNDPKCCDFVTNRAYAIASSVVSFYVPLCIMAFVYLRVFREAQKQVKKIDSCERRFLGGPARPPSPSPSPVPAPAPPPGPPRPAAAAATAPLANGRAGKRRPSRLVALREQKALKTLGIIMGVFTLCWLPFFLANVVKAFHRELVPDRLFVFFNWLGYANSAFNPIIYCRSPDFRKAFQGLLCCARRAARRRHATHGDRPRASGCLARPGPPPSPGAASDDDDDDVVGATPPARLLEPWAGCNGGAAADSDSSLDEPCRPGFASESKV
Data set [6] relates to adrenergic beta-receptors in adipose tissue. To be noted: animals exposed to racemic ractopamine; cited from earlier work.
The subject of a further data set is pigs. To be noted: literature; cited from earlier work.
The target of data set [7] is adrenergic B3 (h) receptor (Homo sapiens, UniProt P13945). Put plainly: Affinity (Ki) for adrenergic β-receptors, β3. Type of data set: binding.
Chain of adrenergic B3 (h) receptor (P13945 whole entry): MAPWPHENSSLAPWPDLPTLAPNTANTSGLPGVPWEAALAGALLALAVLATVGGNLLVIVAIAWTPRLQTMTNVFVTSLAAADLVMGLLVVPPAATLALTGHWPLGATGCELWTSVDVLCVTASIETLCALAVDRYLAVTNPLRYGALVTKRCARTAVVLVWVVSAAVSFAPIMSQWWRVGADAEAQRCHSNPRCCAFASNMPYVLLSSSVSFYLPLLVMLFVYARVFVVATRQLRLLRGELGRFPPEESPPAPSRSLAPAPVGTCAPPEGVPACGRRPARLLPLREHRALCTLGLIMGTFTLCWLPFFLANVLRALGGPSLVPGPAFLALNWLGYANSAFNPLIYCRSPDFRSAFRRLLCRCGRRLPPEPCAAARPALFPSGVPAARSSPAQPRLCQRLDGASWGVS
In the next data set the test system is obese animals. Put plainly: Weight loss in obese animals. Particulars: in vivo.
The next data set relates to adrenergic beta-receptor. Particulars: cited from earlier work.

This is an account of results in patent publication US20080070990A1, “USE OF RACTOPAMINE ENANTIOMERS” (STIRLING PRODUCTS LIMITED, priority 2006, published 2008).

Structures are written as SMILES. Where a name gives a salt, the structure may show the parent alone.

As to `C[C@H](CCc1ccc(O)cc1)NC[C@H](O)c1ccc(O)cc1.Cl` (racemic) [RR-ractopamine, RR 4-Hydroxy-a [[[3-(4-hydroxyphenyl)-1-methylpropyl]amino]methyl]benzenemethanol hydrochloride], in the data set on mice [1], the “CNS-mediated stress, stress testing in mice” value is “not causing stress”. In addition, in the data set with mice [2], the “drug-related stress, spontaneous motor activity” value was “no signs of drug-related stress”. Also, the “drug-related stress, Irwin test” value in the data set with rats [3] is reported as “do not show signs of drug-related stress”. In the data set on livestock animals, the “stress as side effect in livestock animals” value is listed as “does not cause this side effect in livestock animals”. For the same compound, the “potency rank among the four stereoisomers in vivo” value in the data set with rats [4] was “most potent”. For the same compound, in the data set on animals, the “effects on cardiovascular parameters” value is “failed to reveal detrimental effects on cardiovascular parameters”.

One may read the Ki as a dissociation constant, usually derived from enzyme kinetics or from competition with a known ligand. Regarding `CC(CCc1ccc(O)cc1)NCC(O)c1ccc(O)cc1` (racemic) [Ractopamine, 4-hydroxy-a-[[[3-(4-hydroxyphenyl)-1-methylpropyl]amino]methyl]benzenemethanol hydrochloride], in data set [5], the affinity corresponds to a Ki of 260 nM. In addition, the “drug-related stress, spontaneous motor activity” value with mice [2] is “drug-related and CNS-mediated (“psychological”) stress”. In the data set on rats [3], the “drug-related stress, Irwin test” value is on record as “demonstrate stress”. Moreover, the “reduction of concentration of adrenergic beta-receptors in adipose tissue” value in [6] is on record as 50%. The “stress in pigs / livestock animals” value with pigs was “cause stress in livestock animals”. In [7], affinity was put at a Ki of 14 µM and the “affinity for beta-3 receptors (in words)” value is given as “negligible affinity for beta-3 receptors”. In addition, the “weight loss in obese animals” value in the data set with obese animals is on record as “cause weight loss in obese animals”.

`CC(CCc1ccc(O)cc1)NCC(O)c1ccc(O)cc1` (single isomer, unassigned) [RS-enantiomer]: in the data set with adrenergic beta-receptor, the “adrenergic beta-receptor stimulating activity” value was “reduced beta-receptor activity when compared with RR-ractopamine”.

Consider `C[C@H](CCc1ccc(O)cc1)NC[C@@H](O)c1ccc(O)cc1` (single isomer, unassigned) [SR-enantiomer], for which the “adrenergic beta-receptor stimulating activity” value with adrenergic beta-receptor is “reduced beta-receptor activity when compared with RR-ractopamine”.

As to `C[C@@H](CCc1ccc(O)cc1)NC[C@@H](O)c1ccc(O)cc1` (single isomer, unassigned) [SS-enantiomer], the “adrenergic beta-receptor stimulating activity” value in the data set on adrenergic beta-receptor is reported as “completely devoid of adrenergic beta-receptor stimulating activity”.

With `CC(C)(C)NC[C@H](O)c1ccc(O)c(CO)c1` [R-salbutamol], the “CNS-effects related to stress in laboratory animals” value in the data set with rats [3] (laboratory animals) was “not causing CNS-effects related to stress in laboratory animals”. Further, in the data set on pigs, the “stress in pigs / livestock animals” value was “does not induce stress in pigs”. For the same compound, the “affinity for beta-3 receptors (in words)” value in data set [7] is given as “negligible affinity for beta-3 receptors”.
